# Values quoted from earlier work, collected in US10779561B2, “Resveratrol solubility” (AQUANOVA AG, priority 2016, dated 2020).
# Columns and labels:
# [1] = tested on: NFκ-b; details: in-vitro conditions
# [2] = tested on: rats; details: several in-vivo studies in rats
smiles,measurement,setting,value
Oc1ccc(C=Cc2cc(O)cc(O)c2)cc1 [resveratrol],effect on nuclear translocation of NFκ-b,[1],inhibits the nuclear translocation of NFκ-b
same,neuro-protective effect,[2],neuro-protective effect
